Measured values published in publication PMC3735939, “The low levels of eicosapentaenoic acid in rat brain phospholipids are maintained via multiple redundant mechanisms” (Journal of Lipid Research, 2013).

Assay: In vivo kinetics of FA incorporation and turnover in brain phospholipids (intravenous radiotracer infusion, kinetic model)
Parameters: species or system rat
Conditions: MEP vs vehicle
Procedure, shortened: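 Rats were given vehicle or MEP 10 mg/kg via tail vein, then radiolabelled fatty acid was infused intravenously for 5 min to steady-state plasma radioactivity while the animals were unanesthetized, with serial jugular blood sampling. They were killed by head-focused microwave irradiation, and brain incorporation was modelled from plasma unesterified fatty acid and acyl-CoA pools.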

CCCCCCCCCCCCCCC1(C(=O)OC)CO1 (centres unmarked) [MEP, methyl-2-tetradecylglycidate, reference compound]
fold increase in esterification of 14C-palmitate into diacylglycerol: 2 fold | fold increase in esterification of 14C-palmitate into triacylglycerol: 2 fold | fold increase of t1/2 of EPA in ChoGpl: 1.7 fold | fold increase of t1/2 of EPA-synthesized DHA in ChoGpl: 4.3 fold | fold increase of t1/2 of EPA-synthesized DHA in EtnGpl: 2.5 fold | fold increase of t1/2 of EPA-synthesized DHA in brain total phospholipids: 4.2 fold | fold increase of t1/2 of EPA-synthesized n-3 DPA in PtdSer: 1.6 fold | reduction of FFA of DHA in brain total phospholipids: 24 % per day
